The compounds below were run against T1, MIF (Homo sapiens, UniProt P14174) (assay: MIF tautomerase assay using pHPP as substrate). Conditions: inhibition of the MIF enzyme in vitro; mean of multiple test results; read-out: Tautomerase Inhibition pIC50 (converted).
T1 sequence (P14174 2-115 limits assumed): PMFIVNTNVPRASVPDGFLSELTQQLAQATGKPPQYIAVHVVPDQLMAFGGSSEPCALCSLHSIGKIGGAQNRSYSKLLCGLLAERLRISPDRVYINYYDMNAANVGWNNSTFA
Format: biochemical
Procedure: Tautomerase Assay Using pHPP as Substrate
This assay measured MIF's tautomerase activity in a cell-free system and was based on the determination of initial rates of the MIF-catalyzed conversion of the ketonic into the enolic tautomer of pHPP. This was achieved by spectrophotometric quantification of the complex between borate and the product of the reaction (enolic pHPP). The substrate was prepared by conversion of the enolic pHPP into its ketonic form. To achieve this, 0.5 M pHPP in methanol was diluted 10-fold with 50 mM sodium acetate buffer at pH 6.0, and then the suspension was shaken for 24 h at room temperature in darkness, and finally stored at 4° C. for not more than 1 week, with 5 min sonication being recommended before use.
Assays were performed in small-volume clear-bottom black 96 or 384-well polystyrene plates (Greiner Bio-One). First, 2 μL of the enzyme solution containing 6 nM of MIF in DPBS, 0.025% w/v BSA, and 300 μM CHAPS was dispensed onto sample and negative control wells using Multidrop Combi with metallic tip cassettes (Thermo Fisher Scientific) previously treated with Sigmacote. Then, 2 μL of the same buffer without MIF was dispensed onto positive control wells. The reaction was started by addition of the following to all wells: 2 μL of substrate solution containing 3 mM ketonic pHPP in 200 mM boric acid, 25 mM sodium phosphate, 0.025% w/v BSA, and 300 μM CHAPS at pH 6.0. In order to remove bubbles, the plate was centrifuged in an Allegra 25R centrifuge (Beckman Coulter, Inc., Brea, Calif.) at 1000 rpm for 2 min at room temperature. Then, the plate was read in an EnVision. Final concentrations of enzyme and substrate were 3 nM and 1.5 mM, respectively. Initial rates were calculated for each well as the slope of the absorbance progress curve.
All exemplified compounds (Examples 1-230) were tested in the MIF tautomerase assay or a similar assay described above. The data mentioned below represents a mean pIC50 value of multiple test results. It is understood that the data illustrated below may have reasonable variation depending on the specific conditions and procedures used by the person conducting the testing.

| Structure (SMILES) | IC50 [µM] |
| --- | --- |
| O=C(O)Cn1cnc2c(N3Cc4ccccc4C3=O)nc(N3CCN(c4ccc(O)cc4)CC3)nc21 [Example 119, 2-(2-(4-(4-hydroxyphenyl)piperazin-1-yl)-6-(1-oxoisoindolin-2-yl)-9H-purin-9-yl)acetic acid] | 0.1 to 0.977 |
| Oc1ccc(N2CCN(c3nc(-n4ncc5ccccc54)c4ncn(C5CCOC5)c4n3)CC2)nc1 (stereo not drawn) [Example 228, 6-(4-(6-(1H-indazol-1-yl)-9-(tetrahydrofuran-3-yl)-9H-purin-2-yl)piperazin-1-yl)pyridin-3-ol] | 0.1 to 0.977 |
| O=C1c2ccccc2C(=O)N1CCn1cnc2c(-n3ncc4ccccc43)nc(N3CCN(c4ccc(O)cc4)CC3)nc21 [Example 136, 2-(2-(2-(4-(4-hydroxyphenyl)piperazin-1-yl)-6-(1H-indazol-1-yl)-9H-purin-9-yl)ethyl)isoindoline-1,3-dione] | 1 to 9.77 |
| O=C(O)Cn1cnc2c(-n3nc(CO)c4ccccc43)nc(N3CCN(c4ccc(O)cc4)CC3)nc21 [Example 11, 2-(6-(3-(hydroxymethyl)-1H-indazol-1-yl)-2-(4-(4-hydroxyphenyl)piperazin-1-yl)-9H-purin-9-yl)acetic acid] | 0.01 to 0.0977 |
| OCCn1cnc2c(N[C@@H](CO)Cc3ccccc3)nc(N3CCN(c4ccc(O)cc4)CC3)nc21 [Example 5, (R)-4-(4-(6-((1-hydroxy-3-phenylpropan-2-yl)amino)-9-(2-hydroxyethyl)-9H-purin-2-yl)piperazin-1-yl)phenol] | > 10 |
| CN(C)Cc1cccc2c1cnn2-c1nc(N2CCN(c3ccc(O)cn3)CC2)nc2c1ncn2CC(=O)O [Example 144, 2-(6-(4-((dimethylamino)methyl)-1H-indazol-1-yl)-2-(4-(5-hydroxypyridin-2-yl)piperazin-1-yl)-9H-purin-9-yl)acetic acid] | 0.1 to 0.977 |
| OCCn1cnc2c(-n3ncc4ccccc43)nc(N3CC=C(c4ccc(O)cc4)CC3)nc21 [Example 159, 4-(1-(9-(2-hydroxyethyl)-6-(1H-indazol-1-yl)-9H-purin-2-yl)-1,2,3,6-tetrahydropyridin-4-yl)phenol] | > 10 |
| O=C(Cn1cnc2c(-n3ncc4ccccc43)nc(N3CCN(c4ccc(O)cc4)CC3)nc21)NS(=O)(=O)c1ccccc1 [Example 97, 2-(2-(4-(4-hydroxyphenyl)piperazin-1-yl)-6-(1H-indazol-1-yl)-9H-purin-9-yl)-N-(phenylsulfonyl)acetamide] | 0.1 to 0.977 |
| O=C(O)Cn1cnc2c(-n3ncc4c(CO)cccc43)nc(N3CCN(c4ccc(O)cc4)CC3)nc21 [Example 16, 2-(6-(4-(hydroxymethyl)-1H-indazol-1-yl)-2-(4-(4-hydroxyphenyl)piperazin-1-yl)-9H-purin-9-yl)acetic acid] | 0.01 to 0.0977 |
| O=C(O)Cn1cnc2c(-n3nc(C(=O)O)c4ccccc43)nc(N3CCN(c4ccc(O)cc4)CC3)nc21 [Example 10, 1-(9-(carboxymethyl)-2-(4-(4-hydroxyphenyl)piperazin-1-yl)-9H-purin-6-yl)-1H-indazole-3-carboxylic acid] | 0.01 to 0.0977 |
| CC(C(=O)O)n1cnc2nc(N3CCN(c4ccc(O)cc4)CC3)nc(-n3ncc4ccccc43)c21 (stereo not drawn) [Example 125, 2-(2-(4-(4-hydroxyphenyl)-piperazin-1-yl)-6-(1H-indazol-1-yl)-7H-purin-7-yl)propanoic acid] | 0.1 to 0.977 |
| CS(=O)(=O)NCCn1cnc2c(-n3ncc4ccccc43)nc(N3CCN(c4ccc(O)cc4)CC3)nc21 [Example 139, N-(2-(2-(4-(4-hydroxyphenyl)piperazin-1-yl)-6-(1H-indazol-1-yl)-9H-purin-9-yl)ethyl)methanesulfonamide] | 1 to 9.77 |
| O=C(O)Cn1cnc2c(-n3ncc4ccccc43)nc(N3CCN(c4ccc5[nH]ncc5c4)CC3)nc21 [Example 140, 2-(2-(4-(1H-indazol-5-yl)piperazin-1-yl)-6-(1H-indazol-1-yl)-9H-purin-9-yl)acetic acid] | > 10 |
| O=C(Cn1cnc2c(-n3ncc4ccccc43)nc(N3CCN(c4ccc(O)cc4)CC3)nc21)NS(=O)(=O)Cc1ccccc1 [Example 98, N-(benzylsulfonyl)-2-(2-(4-(4-hydroxyphenyl)piperazin-1-yl)-6-(1H-indazol-1-yl)-9H-purin-9-yl)acetamide] | 0.1 to 0.977 |
| O=C(O)Cn1cnc2c(-n3nnc4c(CO)cccc43)nc(N3CCN(c4ccc(O)cc4)CC3)nc21 [Example 123, 2-(6-(4-(hydroxymethyl)-1H-benzo[d][1,2,3]triazol-1-yl)-2-(4-(4-hydroxyphenyl)piperazin-1-yl)-9H-purin-9-yl)acetic acid] | 0.01 to 0.0977 |

Other lines, results leading:

| IC50 [µM] | Structure (SMILES) |
| --- | --- |
| 0.01 to 0.0977 | O=C(O)C1CCN(c2nc(N3CCN(c4ccc(O)cc4)CC3)nc3c2ncn3-c2ccncc2)C1 (stereo not drawn) [Example 164, 1-(2-(4-(4-hydroxyphenyl)piperazin-1-yl)-9-(pyridin-4-yl)-9H-purin-6-yl)pyrrolidine-3-carboxylic acid] |
| 0.01 to 0.0977 | CC(C(=O)O)n1cnc2c(-n3ncc4ccccc43)nc(N3CCN(c4ccc(O)cc4)CC3)nc21 (stereo not drawn) [Example 124, 2-(2-(4-(4-hydroxyphenyl)piperazin-1-yl)-6-(1H-indazol-1-yl)-9H-purin-9-yl)propanoic acid] |
| 1 to 9.77 | COc1cccc(-n2cnc3c(C)nc(N4CCN(c5ccc(O)cc5)CC4)nc32)c1Cl [Example 61, 4-(4-(9-(2-chloro-3-methoxyphenyl)-6-methyl-9H-purin-2-yl)piperazin-1-yl)phenol] |
| 0.1 to 0.977 | OCCCn1cnc2c(-n3ncc4ccccc43)nc(N3CCN(c4ccc(O)cc4)CC3)nc21 [Example 23, 4-(4-(9-(3-hydroxypropyl)-6-(1H-indazol-1-yl)-9H-purin-2-yl)piperazin-1-yl)phenol] |
| 0.1 to 0.977 | CC1CN(c2nc(N)c3ncn(-c4ccncc4)c3n2)CCN1c1ccc(O)cc1 (stereo not drawn) [Example 186, 4-(4-(6-amino-9-(pyridin-4-yl)-9H-purin-2-yl)-2-methylpiperazin-1-yl)phenol] |
| > 10 | Nc1nc(N2CCN(c3ccc(O)cc3)CC2)nc2c(-c3ccncc3)c[nH]c12 [Example 226, 4-(4-(4-amino-7-(pyridin-4-yl)-5H-pyrrolo[3,2-d]pyrimidin-2-yl)piperazin-1-yl)phenol] |
| 0.1 to 0.977 | Cc1nc(N2CCC(O)(c3cccc(O)c3)CC2)nc2c1ncn2-c1ccncc1 [Example 206, 4-(3-hydroxyphenyl)-1-(6-methyl-9-(pyridin-4-yl)-9H-purin-2-yl)piperidin-4-ol] |
| > 10 | O=C(O)Cn1cnc2c(N3N=CC4C=CC=CC43)nc(N3CCN(c4ccncc4)CC3)nc21 (stereo not drawn) [Example 49, 2-(6-(3a,7a-dihydro-1H-indazol-1-yl)-2-(4-(pyridin-4-yl)piperazin-1-yl)-9H-purin-9-yl)acetic acid] |
| 1 to 9.77 | Cc1nc(N2CCN(c3ccc(O)cc3)CC2)nc2c1ncn2-c1cccc(Cl)c1 [Example 65, 4-(4-(9-(3-chlorophenyl)-6-methyl-9H-purin-2-yl)piperazin-1-yl)phenol] |
| 0.01 to 0.0977 | CC(C)(C(=O)O)n1cnc2c(-n3ncc4ccccc43)nc(N3CCN(c4ccc(O)cc4)CC3)nc21 [Example 128, 2-(2-(4-(4-hydroxyphenyl)piperazin-1-yl)-6-(1H-indazol-1-yl)-9H-purin-9-yl)-2-methylpropanoic acid] |
| > 10 | Nc1nc(N2CCC(O)(c3ccccc3)CC2)nc2c1ncn2-c1ccncc1 [Example 202, 1-(6-amino-9-(pyridin-4-yl)-9H-purin-2-yl)-4-phenylpiperidin-4-ol] |
| > 10 | CN(c1ccncc1)c1nc(N2CCC(O)(c3ccc(O)cc3)CC2)nc2[nH]cnc12 [Example 220, 4-(4-hydroxyphenyl)-1-(6-(methyl(pyridin-4-yl)amino)-9H-purin-2-yl)piperidin-4-ol] |
| 1 to 9.77 | CNC(=O)c1ccc(-n2cnc3c(N)nc(N4CCN(c5ccc(O)cc5)CC4)nc32)cc1 [Example 103, 4-(6-amino-2-(4-(4-hydroxyphenyl)piperazin-1-yl)-9H-purin-9-yl)-N-methylbenzamide] |
| 1 to 9.77 | Cc1nc(N2CCN(c3ccc(O)cc3)CC2)nc2c1ncn2CCO [Example 111, 4-(4-(9-(2-hydroxyethyl)-6-methyl-9H-purin-2-yl)piperazin-1-yl)phenol] |
| 1 to 9.77 | CNC(=O)Cn1cnc2c(-n3cnc4ccccc43)nc(N3CCN(c4ccc(O)cc4)CC3)nc21 [Example 42, 2-(6-(1H-benzo[d]imidazol-1-yl)-2-(4-(4-hydroxyphenyl)piperazin-1-yl)-9H-purin-9-yl)-N-methylacetamide] |

From US20220144838A1, “Compounds as Inhibitors of Macrophage Migration Inhibitory Factor” (NANJING IMMUNOPHAGE BIOTECH CO., LTD., priority 2019, published 2022)
